Blank lines part the entries; values can stand above or below the compound they belong to. No end group written: not given here.
Assays:
[1] = system: primary human osteoclasts; test: OsteoLyse assay: release of europium chelate-labeled collagen fragments by osteoclasts; assay type: cell-based; design: inhibition of bone matrix degradation: dose or concentration left out as unconfirmed
Experimental: Remove a 96-well cell culture plate to which europium chelate-labeled collagen (e.g., collagen labeled with Eu^3+-N′-(p-isothiocyanatobenzyl) diethylenetriamine-N^1,N^2,N^3-tetraacetic acid) is covalently bound from 4° C. storage and let it warm to room temperature. Seed mature osteoclasts or osteoclast precursors (human or non-human) onto the cell culture plate in medium containing M-CSF and soluble RANK ligand. If using Cambrex's primary human osteoclast precursors (Poietics™ Human Osteoclast Precursors), seed the cells at a density of 10,000 cells/well in osteoclast precursor differentiation medium (Cambrex product # PT-8001). See Example 2 for a detailed protocol for the culture of primary human osteoclast precursors (Cambrex product # 2T-110). Precursors cultured in the absence of soluble RANK ligand can serve as “undifferentiated” controls.
Culture the cells for 6 days and then renew the cell culture medium. Fresh medium preferably contains the same concentrations of M-CSF and soluble RANK ligand as in the original day 0 medium. Unused control and differentiation media from day 0 can be frozen (on day 0) and used for the day 6 medium changes.
At least two different types of protocols can be used. If the assay is used to measure the effect of a test compound on differentiation of the osteoclast precursor, the test compound typically is added at day 0 and removed at day 6. However, if the assay is used to measure the effect of a test compound on mature osteoclast function (i.e., bone matrix collagen degradation), the test compound typically is added at day 6 with the new medium addition.
The cell culture medium can be sampled at any time after the medium change. Because a very small volume (5 to 10 μl) of medium is sampled, it is very easy to do time-course studies by repeatedly sampling the medium on sequential days. Medium volumes greater than 10 μl are unnecessary and, because an excess of fluorophore releasing reagent with respect to sample is desired, actually may lead to inefficient counting of the fluorophore as the ratio of fluorophore releasing reagent to sample decreases. […]
Determine the fluorescence of each well of the assay vessel in a time-resolved fluorescence fluorimeter (e.g., a Wallac Victor, with excitation at 340 nm and emission at […]) over a […] time period after an initial delay of 400 μseconds.
Primary human osteoclast precursors were seeded onto europium chelate-labeled collagen covalently bound to a maleic anhydride-derivatized polystyrene plate (Pierce Reacti-Bind™) at 10,000 cells/well and cultured in differentiation medium containing (1) no calcitonin, (2) calcitonin added only at day 5, or (3) calcitonin added on both days 0 and 5. Ten μl samples of culture media were counted after a total of 6 days. […]

[2] = system: primary human osteoclast precursors; test: TRAP stain (multinucleated TRAP-positive cells/well); assay type: cell-based
Experimental: Primary human osteoclast precursors were seeded onto europium chelate-labeled collagen covalently bound to a maleic anhydride-derivatized polystyrene plate at 10,000 cells/well and cultured in medium containing soluble RANK ligand with and without interferon γ. After 9 days, cell culture media were assayed for fluorescent collagen peptides as described in Example 1. Cells in the plate were subsequently stained for TRAP (Sigma # 386-A).
In another experiment, osteoclast precursors were cultured in differentiation medium with and without different concentrations of alendronate. After 7 days the media were renewed and, after an additional 3 days, the cell culture media were sampled as described in Example 1. Cells in the plate were subsequently stained for TRAP (Sigma # 386-A).

[3] = system: osteoclast precursors; test: Osteoclast-mediated degradation of covalently bound FITC-labeled collagen (DQ collagen); assay type: cell-based, human; settings: 1 ng/ml; days 5, 7 and 9 of culture; FITC-labeled bovine type I collagen
Experimental: FITC-labeled bovine type I collagen (DQ collagen, Molecular Probes, Inc.) was covalently bound to the surface of a maleic anhydride-derivatized 96-well tissue culture plate. Osteoclast precursors were cultured, with and without differentiation, in the plate as described in Example 2. Interferon γ (1 ng/ml) was added to some wells. At days 5, 7 and 9 of culture, 10 μl samples of each well were collected and added to 200 μl phosphate-buffered saline and counted in a fluorimeter (485/535 nm).

[4] = 9 days of culture, medium with soluble RANK ligand

IC50 ([1]; Osteoclast, OsteoLyse assay, primary human osteoclasts, read-out: IC50, in vitro inhibition of bone resorption): ~2000 nM
Compound: NCCCC(O)(P(=O)(O)O)P(=O)(O)O [alendronate]
inhibition of differentiation of osteoclast precursors (multinucleated TRAP-positive osteoclasts) ([2]; different concentrations, medium renewed after 7 days, 3 additional days): did not inhibit

Compound: calcitonin (CGNLSTCMLGTYTQDFNKFHTFPQTAIGVGAP; ends and bridges not checked; cysteine pairing not given here; UniProt P01258 85-116, looked up)
effect on resorptive activity of the osteoclasts ([1]; calcitonin added on days 0 and 5 (prior exposure on day 0)): little effect
inhibition of bone matrix degradation ([1]; calcitonin for 24 hours (added day 5 of culture), counted after 6 days): 88%

IC50, percent inhibition relative to controls, OsteoLyse assay [1, 4]: approximately 0.1 ng/ml
IC50, percent inhibition relative to controls, TRAP assay [2, 4]: approximately 0.1 ng/ml
Compound: interferon γ [cytokine added to osteoclast precursor cultures]
inhibition of osteoclast-mediated collagen degradation [3]: completely inhibited

Source: patent publication US7405037B2, “Methods and tools for detecting collagen degradation” (Lonza Walkersville, Inc., priority 2004, dated 2008)
